Where two headings read alike, the source gives them in different places.
Experiment: FIH study 67856633LYM1001 plasma pharmacokinetics
Assay type: in vivo, human
Conditions: human, plasma
From the text: The study consists of a dose escalation phase (Part 1), to determine the recommended Phase 2 dose(s) (RP2D[s]), followed by an expansion phase at the RP2D(s) (Part 2). The dose escalation phase is supported using an adaptive dose escalation strategy guided by the modified continual reassessment method (mCRM) based on a Bayesian Logistic Regression Model (BLRM) with escalation with overdose control (EWOC) principle. The mCRM design allows the use of all cumulative dose-limiting toxicities (DLT) data up to the current dose cohort.
In Part 1, subjects were enrolled in cohorts of daily oral doses at 50 mg, 100 mg, 200 mg (1×200 mg or 4×50 mg), 300 mg (3×100 mg or 6×50 mg), 400 mg (2×200 mg or 8×50 mg), and 600 mg (3×200 mg), and loading dosing cohorts—400 mg loading dose once daily for 14 days, followed by 300 mg once daily, and 300 mg loading dose twice daily for 7 days followed by 300 mg once daily. In Part 2, subjects received daily oral doses of 300 mg.
In Part 1, PK data were available in subjects receiving doses of 50 mg (1×50 mg), 100 mg (2×50 mg), 200 mg (4×50 mg or 1×200 mg), 300 mg (6×50 mg or 3×100 mg), 400 mg (8×50 mg or 2×200 mg), and 600 mg (3×200 mg). Pharmacokinetic data were also available from the loading dose regimens of 400 mg (8×50 mg) loading dose once daily for 14 days followed by 300 mg (6×50 mg) once daily, and 300 mg (6×50 mg) loading dose twice daily for 7 days followed by 300 mg (6×50 mg) once daily.

## O=C(Nc1ccnc(C(F)(F)F)c1)c1cnn(-c2cccc3c(=O)[nH]ccc23)c1C(F)(F)F [Compound A, 1-(1-oxo-1,2-dihydroisoquinolin-5-yl)-5-(trifluoromethyl)-N-[2-(trifluoromethyl)pyridin-4-yl]-1H-pyrazole-4-carboxamide]
oral, 100 mg, Cycle 1 Day 1, 50 mg capsule, cohort 2 × 50 mg, mean, read-out: AUCτ
  AUC: 51.4 µg·h/mL
oral, 100 mg, Cycle 1 Day 1, 50 mg capsule, cohort 2 × 50 mg, mean, read-out: Cmax
  Cmax: 3000 ng/mL
oral, 100 mg, Cycle 1 Day 1, 50 mg capsule, cohort 2 × 50 mg, median, read-out: Tmax
  Tmax: 4 h
oral, 100 mg, Cycle 2 Day 1, 50 mg capsule, cohort 2 × 50 mg, mean, read-out: AUCτ
  AUC: 366 µg·h/mL
oral, 100 mg, Cycle 2 Day 1, 50 mg capsule, cohort 2 × 50 mg, mean, read-out: Cmax
  Cmax: 19900 ng/mL
oral, 100 mg, Cycle 2 Day 1, 50 mg capsule, cohort 2 × 50 mg, median, read-out: Tmax
  Tmax: 2 h
oral, 200 mg, Cycle 1 Day 1, 50 mg capsule, cohort 4 × 50 mg, Subject 100032 excluded, mean, read-out: AUCτ
  AUC: 118 µg·h/mL
oral, 200 mg, Cycle 1 Day 1, 50 mg capsule, cohort 4 × 50 mg, Subject 100032 excluded, mean, read-out: Cmax
  Cmax: 6750 ng/mL
oral, 200 mg, Cycle 1 Day 1, 50 mg capsule, cohort 4 × 50 mg, Subject 100032 excluded, median, read-out: Tmax
  Tmax: 4 h
oral, 200 mg, Cycle 1 Day 1, 200 mg capsule, cohort 200 mg, mean, read-out: AUCτ
  AUC: 61.9 µg·h/mL
oral, 200 mg, Cycle 1 Day 1, 200 mg capsule, cohort 200 mg, mean, read-out: Cmax
  Cmax: 4060 ng/mL
oral, 200 mg, Cycle 1 Day 1, 200 mg capsule, cohort 200 mg, median, read-out: Tmax
  Tmax: 4 h
oral, 200 mg, Cycle 1 Day 1, cohort 4 × 50 mg, with Subject 100032 data included, read-out: mean AUC
  AUC: 139 µg·h/mL
oral, 200 mg, Cycle 1 Day 1, cohort 4 × 50 mg, with Subject 100032 data included, read-out: mean Cmax
  Cmax: 8060 ng/mL
oral, 200 mg, Cycle 2 Day 1, 50 mg capsule, cohort 4 × 50 mg, Subject 100032 excluded, mean, read-out: AUCτ
  AUC: 882 µg·h/mL
oral, 200 mg, Cycle 2 Day 1, 50 mg capsule, cohort 4 × 50 mg, Subject 100032 excluded, mean, read-out: Cmax
  Cmax: 44800 ng/mL
oral, 200 mg, Cycle 2 Day 1, 50 mg capsule, cohort 4 × 50 mg, Subject 100032 excluded, median, read-out: Tmax
  Tmax: 2 h
oral, 200 mg, Cycle 2 Day 1, 200 mg capsule, cohort 200 mg, individual values, N = 2, read-out: Cmax
  Cmax: 25700 ng/mL
oral, 200 mg, Cycle 2 Day 1, 200 mg capsule, cohort 200 mg, read-out: AUCτ
  AUC: 453 µg·h/mL
oral, 200 mg, Cycle 2 Day 1, cohort 4 × 50 mg, with Subject 100032 data included, read-out: mean AUC
  AUC: 1140 µg·h/mL
oral, 200 mg, Cycle 2 Day 1, cohort 4 × 50 mg, with Subject 100032 data included, read-out: mean Cmax
  Cmax: 58200 ng/mL
oral, 300 mg, Cycle 1 Day 1, 50 mg capsule, cohort 6 × 50 mg (300 mg QD), mean, n = 9, read-out: AUCτ
  AUC: ~152 µg·h/mL
oral, 300 mg, Cycle 1 Day 1, 50 mg capsule, cohort 6 × 50 mg (300 mg QD), mean, read-out: Cmax
  Cmax: ~8810 ng/mL
oral, 300 mg, Cycle 1 Day 1, 50 mg capsule, cohort 6 × 50 mg (300 mg QD), median, read-out: Tmax
  Tmax: ~4 h
oral, 300 mg, Cycle 1 Day 1, cohort 6 × 50 mg BID > QD (300 mg BID 7 days then 300 mg QD), mean, read-out: Cmax
  Cmax: 4310 ng/mL
oral, 300 mg, Cycle 1 Day 1, cohort 6 × 50 mg BID > QD (300 mg BID 7 days then 300 mg QD), median, read-out: Tmax
  Tmax: ~6 h
oral, 300 mg, Cycle 2 Day 1, 50 mg capsule, cohort 6 × 50 mg (300 mg QD), mean, read-out: AUCτ
  AUC: ~1140 µg·h/mL
oral, 300 mg, Cycle 2 Day 1, 50 mg capsule, cohort 6 × 50 mg (300 mg QD), mean, read-out: Cmax
  Cmax: ~55200 ng/mL
oral, 300 mg, Cycle 2 Day 1, 50 mg capsule, cohort 6 × 50 mg (300 mg QD), median, read-out: Tmax
  Tmax: ~4 h
oral, 300 mg, Cycle 2 Day 1, cohort 6 × 50 mg BID > QD, individual values, N = 2, read-out: Tmax
  Tmax: ~3 h
oral, 400 mg, Cycle 1 Day 1, 50 mg capsule, cohort 8 × 50 mg, mean, read-out: AUCτ
  AUC: 131 µg·h/mL
oral, 400 mg, Cycle 1 Day 1, 50 mg capsule, cohort 8 × 50 mg, mean, read-out: Cmax
  Cmax: 7560 ng/mL
oral, 400 mg, Cycle 1 Day 1, 50 mg capsule, cohort 8 × 50 mg, median, read-out: Tmax
  Tmax: 3 h
oral, 400 mg, Cycle 1 Day 1, 200 mg capsule, cohort 2 × 200 mg food adlib, mean, read-out: AUCτ
  AUC: 112 µg·h/mL
oral, 400 mg, Cycle 1 Day 1, 200 mg capsule, cohort 2 × 200 mg food adlib, mean, read-out: Cmax
  Cmax: 6830 ng/mL
oral, 400 mg, Cycle 1 Day 1, 200 mg capsule, cohort 2 × 200 mg food adlib, median, read-out: Tmax
  Tmax: 4.5 h
oral, 400 mg, Cycle 1 Day 1, 200 mg capsule, cohort 2 × 200 mg, mean, read-out: AUCτ
  AUC: 68 µg·h/mL
oral, 400 mg, Cycle 1 Day 1, 200 mg capsule, cohort 2 × 200 mg, mean, read-out: Cmax
  Cmax: 4190 ng/mL
oral, 400 mg, Cycle 1 Day 1, 200 mg capsule, cohort 2 × 200 mg, median, read-out: Tmax
  Tmax: 5 h
oral, 400 mg, Cycle 1 Day 1, cohort 8 × 50 mg > 6 × 50 mg (400 mg QD loading 14 days then 300 mg QD), Subject 100070 excluded, mean, read-out: AUCτ
  AUC: 186 µg·h/mL
oral, 400 mg, Cycle 1 Day 1, cohort 8 × 50 mg > 6 × 50 mg (400 mg QD loading 14 days then 300 mg QD), Subject 100070 excluded, mean, read-out: Cmax
  Cmax: 10300 ng/mL
oral, 400 mg, Cycle 1 Day 1, cohort 8 × 50 mg > 6 × 50 mg (400 mg QD loading 14 days then 300 mg QD), median, read-out: Tmax
  Tmax: 3 h
oral, 400 mg, Cycle 1 Day 1, cohort 8 × 50 mg > 6 × 50 mg, with Subject 100070 data included, read-out: mean AUC
  AUC: 237 µg·h/mL
oral, 400 mg, Cycle 1 Day 1, cohort 8 × 50 mg > 6 × 50 mg, with Subject 100070 data included, read-out: mean Cmax
  Cmax: 12800 ng/mL
oral, 400 mg, Cycle 2 Day 1, 50 mg capsule, cohort 8 × 50 mg, mean, read-out: AUCτ
  AUC: 1590 µg·h/mL
oral, 400 mg, Cycle 2 Day 1, 50 mg capsule, cohort 8 × 50 mg, mean, read-out: Cmax
  Cmax: 94100 ng/mL
oral, 400 mg, Cycle 2 Day 1, 50 mg capsule, cohort 8 × 50 mg, median, read-out: Tmax
  Tmax: 3.5 h
oral, 400 mg, Cycle 2 Day 1, 200 mg capsule, cohort 2 × 200 mg food adlib, mean, read-out: AUCτ
  AUC: 1330 µg·h/mL
oral, 400 mg, Cycle 2 Day 1, 200 mg capsule, cohort 2 × 200 mg food adlib, mean, read-out: Cmax
  Cmax: 72300 ng/mL
oral, 400 mg, Cycle 2 Day 1, 200 mg capsule, cohort 2 × 200 mg food adlib, median, read-out: Tmax
  Tmax: 8 h
oral, 400 mg, Cycle 2 Day 1, 200 mg capsule, cohort 2 × 200 mg, mean, read-out: AUCτ
  AUC: 824 µg·h/mL
oral, 400 mg, Cycle 2 Day 1, 200 mg capsule, cohort 2 × 200 mg, mean, read-out: Cmax
  Cmax: 43200 ng/mL
oral, 400 mg, Cycle 2 Day 1, 200 mg capsule, cohort 2 × 200 mg, median, read-out: Tmax
  Tmax: 3 h
oral, 600 mg, Cycle 1 Day 1, 200 mg capsule, cohort 3 × 200 mg, individual values, N = 2, read-out: AUCτ
  AUC: 123 µg·h/mL
oral, 600 mg, Cycle 1 Day 1, 200 mg capsule, cohort 3 × 200 mg, individual values, N = 2, read-out: Cmax
  Cmax: 7790 ng/mL
oral, 600 mg, Cycle 1 Day 1, 200 mg capsule, cohort 3 × 200 mg, individual values, N = 2, read-out: Tmax
  Tmax: 3 h
oral, Cycle 2 Day 1, cohort 8 × 50 mg > 6 × 50 mg (400 mg QD loading 14 days then 300 mg QD), Subject 100070 excluded, mean, read-out: Cmax
  Cmax: 72200 ng/mL
oral, Cycle 2 Day 1, cohort 8 × 50 mg > 6 × 50 mg, Subject 100070 excluded, mean, read-out: AUCτ
  AUC: 1700 µg·h/mL
oral, Cycle 2 Day 1, cohort 8 × 50 mg > 6 × 50 mg, Subject 100070 excluded, median, read-out: Tmax
  Tmax: 3 h
oral, Cycle 2 Day 1, cohort 8 × 50 mg > 6 × 50 mg, with Subject 100070 data included, read-out: mean AUC
  AUC: 1810 µg·h/mL
oral, Cycle 2 Day 1, cohort 8 × 50 mg > 6 × 50 mg, with Subject 100070 data included, read-out: mean Cmax
  Cmax: 79700 ng/mL
po, 50 mg, Cycle 2 Day 1, 50 mg capsule, oral daily administration, read-out: median Tmax
  Tmax: 2 to 4 h
po, 200 mg, Cycle 2 Day 1, 200 mg capsule, oral daily administration, read-out: median Tmax
  Tmax: 3 to 8 h
po, first oral dose at Cycle 1 Day 1, doses of 50 to 600 mg, read-out: median Tmax
  Tmax: 3 to 6 h

Source: patent US20240299376A1, “METHOD OF TREATING A CONDITION USING A […] EFFECTIVE DOSE OF 1-(1-OXO-1,2-DIHYDROISOQUINOLIN-5-YL)-5-(TRIFLUOROMETHYL)-N-(2-(TRIFLUOROMETHYL)PYRIDIN-4-YL)-1H-PYRAZOLE-4-CARBOXAMIDE” (Janssen Pharmaceutica NV, priority 2021, published 2024)
